In patent US20130131321A1, “LIGANDS FOR ANTIBODY AND Fc-FUSION PROTEIN PURIFICATION BY AFFINITY CHROMATOGRAPHY” (GRAFFINITY PHARMACEUTICALS GMBH, priority 2010, published 2013):
Read-outs that look alike come from different tables or passages of the source.

Columns and labels:
host cell proteins (HCP) = assay: Microtiter plate chromatography of resins, host cell proteins (bound); format: binding, CHO
Bevacizumab Fab fragment = assay: Microtiter plate chromatography of resins, Bevacizumab Fab fragment (bound); format: binding, humanized; conditions: Bevacizumab Fab fragment
Protocol: (§1) Resins were assessed in packed mode by microtiter plate chromatography. For each column, approximately 30 μl of resin were transferred to a 384-well filter plate and sealed with appropriate top frits.
(§2) Columns were equilibrated with 6.7 column volumes (cv) of phosphate buffered saline (0.15 M NaCl, 20 mM sodium phosphate, pH 7.3; PBS) prior to injection. Either 3.3 cv of whole IgGs dissolved at 0.75 mg ml^−1, Fab or Fc fragments dissolved at 0.25 mg ml^−1 (all three in PBS) or host cell proteins (HCP) were injected onto columns. Antibody fragments of Bevacizumab (Fab and Fc) were prepared by cleavage of whole IgG with papain protease (3) according to the protocol of the manufacturer. […] Volumes transferred were spun through columns at 50 g for 1-2 min. During injection of samples, acceleration was reduced to 10 g and centrifugation time increased to 5-10 min. Effluent fractions were collected in 384-well plates and concentrations of protein analyzed by Bradford assay. Protein masses mi, mft and me (see below) were calculated as the product of fraction volume and measured protein concentration.
(§3) The fraction of ‘bound’ protein was calculated as the difference between the total mass of protein injected mi and the mass of protein detected in the flowthrough mft, divided by the total mass of protein injected.
(§4) the fraction of ‘bound’ protein and the ‘yield’ of protein were calculated for each resin based on data for whole IgG-antibodies. In the case of Bevacizumab fragments and host cell proteins, only the fraction of ‘bound’ protein is given. Selectivity of resins was calculated from data for Bevacizumab Whole IgG and host cell proteins. Due to limited experimental precision, selectivity was truncated beyond values of 10.

Tocilizumab = assay: Microtiter plate chromatography of resins, Tocilizumab (bound, yield); format: binding, humanized
Bevacizumab Fc fragment = assay: Microtiter plate chromatography of resins, Bevacizumab Fc fragment (bound); format: binding, humanized; conditions: Bevacizumab Fc fragment
Protocol: as §1, §2, §3, §4

Bevacizumab [1] = assay: Microtiter plate chromatography of resins, Bevacizumab whole IgG (bound, yield, selectivity); format: binding, humanized
Bevacizumab [2] = target: T1, Bevacizumab (Homo sapiens, UniProt P01857); assay: as above; format: binding, humanized
T1 construct: fused on or other part: humanised anti-VEGF-A VH domain N-terminal of the gamma-1 constant region (engineered, no UniProt entry)

[3] = system: human poly-IgG (h-poly-IgG); assay: Microtiter plate chromatography of resins, human poly-IgG (bound, yield); format: binding
Palivizumab = assay: Microtiter plate chromatography of resins, Palivizumab (bound, yield); format: binding, humanized
Bevacizumab [4] = target: T1, Bevacizumab; assay: Langmuir isotherms by batch adsorption; format: binding, humanized; conditions: Bevacizumab in PBS pH 7.3, 25° C., at least 3 h
Protocol: Experiments were performed with Bevacizumab as antibody. Parameters of Langmuir isotherms for purified antibody were determined by batch adsorption experiments in 96-well microtiter plates. In each well, 10 μl of sorbent slurry (50% v/v) were mixed with 100 μl of protein solution. Initial concentrations varied from 0.05-5 mg ml^−1 in phosphate-buffered saline (0.15 M NaCl, 20 mM phosphate buffer, pH 7.3; PBS). Reactions were agitated vigorously at 25° C. for at least 3 h. Afterwards, antibody concentration in the supernatents were measured by Bradford assay.
Parameters of Langmuir isotherms, i.e. dissociation constants Kd and maximum capacities qm, were determined from the measured concentrations in supernatants. Parameters were estimated by numerical fitting of the model equation derived by Chase (4).

[5] = fraction of whole IgG Bevacizumab bound to resin
[6] = mass of whole IgG Bevacizumab eluted / mass injected
[7] = fraction of injected host cell proteins bound to resin
[8] = fraction of injected protein bound to resin
[9] = fraction of injected whole IgG bound to resin
[10] = mass eluted / mass injected, whole IgG
[11] = bound Bevacizumab whole IgG / bound HCP, truncated beyond values of 10

Compound | HCP Bound (%) (host cell proteins (HCP); host cell proteins) | Bevacizumab Fab Bound (%) (Bevacizumab Fab fragment) | Tocilizumab Bound (%) (Tocilizumab) | Tocilizumab Yield (%) (Tocilizumab) | Bevacizumab Fc Bound (%) (Bevacizumab Fc fragment) | Selectivity (Bevacizumab [1]) | Bevacizumab IgG Bound (%) (Bevacizumab [2]; [5]) | Bevacizumab IgG Yield (%) (Bevacizumab [2]; [6]) | h-poly-IgG Bound (%) [3] [%] | h-poly-IgG Yield (%) [3] [%] | Palivizumab Bound (%) (Palivizumab) | HCP Bound (%) (host cell proteins (HCP); [7]) | Tocilizumab Bound (%) (Tocilizumab; [8]) | Tocilizumab Yield (%) (Tocilizumab; mass eluted / mass injected) | h-poly-IgG Bound (%) [3, 8] [%] | h-poly-IgG Yield (%) ([3]; mass eluted / mass injected) | Bevacizumab IgG Bound (%) (Bevacizumab [2]; [9]) | Bevacizumab IgG Yield (%) (Bevacizumab [2]; [10]) | Palivizumab Bound (%) (Palivizumab; [8]) | Palivizumab Yield (%) (Palivizumab; mass eluted / mass injected) | also measured
COc1ccc(NC(=O)c2cc(-c3cc(Br)cs3)n(C)n2)cc1C(=O)NCCCN [Ligand L2, 5-[5-(4-Bromo-2-thienyl)-1-methylpyrazol-3-yl]carboxamido-2-methoxybenzoic acid N-(3-aminopropyl)amide] | 59 | 100 | 100 | 91 | 100 | 1.7 | 100 | 96 | – | – | – | – | – | – | – | – | – | – | – | – | –
COc1ccc(NC(=O)c2n[nH]c3ccc(Cl)cc23)cc1C(=O)NCCCN [Ligand L4, 5-(5-Chloro-1H-indazol-3-yl)carboxamido-2-methoxybenzoic acid N-(3-aminopropyl)amide] | 57 | 38 | 100 | 93 | 100 | 1.8 | 100 | 98 | 100 | 83 | 100 | – | – | – | – | – | – | – | – | – | Palivizumab Yield (%) (Palivizumab): 97%
COc1ccc(NC(=O)c2cncc(-c3cccs3)c2)cc1C(=O)NCCCN [Ligand L5, 2-Methoxy-5-[3-(2-thienyl)pyridin-5-yl]carboxamidobenzoic acid N-(3-aminopropyl)amide] | 48 | 77 | 100 | 80 | 84 | 2.0 | 100 | 96 | 97 | 69 | 71 | – | – | – | – | – | – | – | – | – | Palivizumab Yield (%) (Palivizumab): 72%
COc1ccc(NC(=O)c2cc(-c3cccs3)n(C)n2)cc1C(=O)NCCCN [Ligand L6, 2-Methoxy-5-[1-methyl-5-(2-thienyl)pyrazol-3-yl]carboxamidobenzoic acid N-(3-aminopropyl)amide] | 54 | 79 | 100 | 102 | 100 | 2.0 | 100 | 100 | 94 | 100 | 98 | – | – | – | – | – | – | – | – | – | Palivizumab Yield (%) (Palivizumab): 100%
COc1ccc(NC(=O)c2cc(-c3ccsc3)n(C)n2)cc1C(=O)NCCCN [Ligand L8, 2-Methoxy-5-[1-methyl-5-(3-thienyl)pyrazol-3-yl]carboxamidobenzoic acid N-(3-aminopropyl)amide] | 44 | 82 | 100 | 97 | 99 | 2.3 | 100 | 96 | 100 | 86 | 100 | – | – | – | – | – | – | – | – | – | Palivizumab Yield (%) (Palivizumab): 89%
Cn1nc(C(=O)Nc2cccc(C(=O)NCCCN)c2)cc1-c1ccco1 [Ligand L17, 3-[5-(2-Furyl)-1-methylpyrazol-3-yl]carboxamidobenzoic acid N-(3-aminopropyl)amide] | 36 | – | 97 | 89 | – | – | 100 | 94 | 91 | 87 | 81 | – | – | – | – | – | – | – | – | – | Palivizumab Yield (%) (Palivizumab): 70%; qm (maximum capacity, Langmuir isotherm) (Bevacizumab [4]): 26 mg per ml resin
NCCCNC(=O)c1cccc(C(=O)Nc2nc3ccccc3s2)c1 [Ligand L72, Isophthalic acid N-(3-aminopropyl)-N′-(benzothiazol-2-yl)amide] | – | – | – | – | – | 2.5 | – | – | – | – | – | 40 | 93 | 93 | 90 | 90 | 100 | 83 | 91 | 91 | –
NCCCNC(=O)c1cccc(C(=O)Nc2nc(-c3ccccc3)cs2)c1 [Ligand L73, Isophthalic acid N-(3-aminopropyl)-N′-(4-phenylthiazol-2-yl)amide] | – | – | – | – | – | 1.9 | – | – | – | – | – | 52 | 97 | 95 | 92 | 87 | 100 | 92 | 87 | 87 | –
NCCCNC(=O)c1cccc(C(=O)Nc2ncc(-c3ccccc3)s2)c1 [Ligand L74, Isophthalic acid N-(3-aminopropyl)-N′-(5-phenylthiazol-2-yl)amide] | – | – | – | – | – | 1.9 | – | – | – | – | – | 53 | 97 | 91 | 91 | 90 | 100 | 96 | 88 | 86 | –
COc1ccc(NC(=O)c2cn3ccsc3n2)cc1C(=O)NCCCNC(=O)CCCCCN [Ligand L75, 5-(Imidazo[2,1-b]thiazol-6-ylcarboxamido)-2-methoxybenzoic acid [3-(6-aminohexanoylamido)-1-propyl]amide] | – | – | – | – | – | 5.7 | – | – | – | – | – | 18 | 100 | 98 | 90 | 90 | 100 | 97 | 91 | 91 | –
COc1ccc(NC(=O)c2cn3ccsc3n2)cc1C(=O)NCCCCCC(=O)NCCOCCOCCN [Ligand L76, 6-[5-(Imidazo[2,1-b]thiazol-6-ylcarboxamido)-2-methoxyphenylcarboxamido]hexanoic acid (8-amino-3,6-dioxa-1-octyl)amide] | – | – | – | – | – | – | – | – | – | – | – | 9 | 93 | 89 | 73 | 73 | 100 | 98 | 59 | 59 | Selectivity (Bevacizumab [1]; [11]): 10.0
COc1ccc(NC(=O)c2cn3ccsc3n2)cc1C(=O)NCCOCCOCC(=O)NCCCN [Ligand L77, 8-[5-(Imidazo-[2,1-b]thiazol-6-ylcarboxamido)-2-methoxyphenylcarboxamido]-3,6-dioxaoctanoic acid (3-amino-1-propyl)amide] | – | – | – | – | – | – | – | – | – | – | – | 10 | 80 | 80 | 65 | 65 | 100 | 96 | 55 | 55 | Selectivity (Bevacizumab [1]; [11]): 10.0
COc1ccc(NC(=O)c2cn3ccsc3n2)cc1C(=O)NCCOCCOCC(=O)NCCCCCCN [Ligand L78, 8-[5-(Imidazo-[2,1-b]thiazol-6-ylcarboxamido)-2-methoxyphenylcarboxamido]-3,6-dioxaoctanoic acid (6-amino-1-hexyl)amide] | – | – | – | – | – | 7.4 | – | – | – | – | – | 14 | 94 | 94 | 76 | 76 | 100 | 94 | 61 | 61 | –
